38 molecules from patent US20240025906A1 (NEURON23, INC., priority 2022, published 2024) can be followed below.

Where only a bound is given, the exact number is not on record here.

In experiment [1] the test system is JAK1/TYK2 pSTAT5 (Tyr694/699) in THP-1 cell line. In words: IFNa-stimulated JAK1/TYK2 pSTAT5 (Tyr694/699) inhibition cellular assay, AlphaLISA. The experiment is classed as cell-based. Particulars: Homo sapiens; THP-1 cells, IFNa-stimulated pSTAT5 (Tyr694/699), AlphaLISA (Assay B); read-out: Cellular_THP1_IFNa-pSTATS_TYK2. The method in brief: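 pSTAT5 (Tyr694/699) in lysates quantified by AlphaLISA (615 nm) after 30 min IFNa stimulation (100 ng/mL stock) of THP-1 cells. The cells, 2e4 per well in HBSS, had first been exposed 1 h at 37° C. to eight 6-fold compound dilutions, 10000 down to 0.04 nM final. IC50 fitted by 4PL regression, bottom 0, Hill slope −1.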
Background: In Alpha technology, singlet oxygen from a donor bead excites a nearby acceptor bead.

The next experiment has as its target T1, TYK2 JH2 (Homo sapiens, UniProt P29597).
T1 construct: purchased DiscoverX (KINOMEscan KdELECT service); host or cells: E. coli BL21-derived (T7 phage display) or HEK-293
Description: TYK2 JH2 binding assay (KINOMEscan KdELECT competitive binding). Particulars: TYK2 JH2 domain, KINOMEscan KdELECT (Assay A); read-out: Biochemical TYK2_DiscoverX_JH2_BND_Kd. The method in brief:
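Competition binding, KdELECT format. Kinase (phage-tagged, E. coli BL21-derived host; or HEK-293, DNA-tagged) + ligand-coated streptavidin beads + cpd, 1 h RT, final DMSO 0.9%. Wash, elute 30 min with 0.5 μM non-biotinylated ligand; qPCR readout. Kd: 11-pt, 3-fold series.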

T1 sequence (P29597 589-875 limits assumed): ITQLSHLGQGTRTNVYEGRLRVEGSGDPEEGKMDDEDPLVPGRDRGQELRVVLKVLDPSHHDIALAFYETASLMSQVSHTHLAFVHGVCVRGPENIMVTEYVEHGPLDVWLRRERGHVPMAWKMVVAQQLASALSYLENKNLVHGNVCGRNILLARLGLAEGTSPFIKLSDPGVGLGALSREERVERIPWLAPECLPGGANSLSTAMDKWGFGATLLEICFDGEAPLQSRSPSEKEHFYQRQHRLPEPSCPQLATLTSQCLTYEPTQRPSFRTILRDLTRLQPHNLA

For `CNc1ncc(-c2cn3ccc(OC)cc3n2)c2cc(NC(=O)C3CC3)ncc12` [Example 1025], the IC50 in experiment [1] was greater than 500 nM. Also, the Kd at TYK2 JH2 was no more than 100 nM.
In the same order, the values of `CNc1ncc(-c2nc3ccc(N4CCOC(C(C)(C)O)C4)cn3n2)c2cc(NC(=O)C3CC3)ncc12` (stereo not shown) [Example 1026] are no more than 500 nM and no more than 100 nM.
As to `CNc1ncc(-c2nc3ccc(N4CCO[C@@H](C(C)(C)O)C4)cn3n2)c2cc(NC(=O)C3CC3)ncc12` [Example 1027], in experiment [1], the IC50 was no more than 500 nM. Besides, the Kd on TYK2 JH2 is no more than 100 nM.
For `CNc1ncc(-c2nc3ccc(N4CCO[C@H](C(C)(C)O)C4)cn3n2)c2cc(NC(=O)C3CC3)ncc12` [Example 1028] the same measures were no more than 500 nM and no more than 100 nM.
As to `CNc1ncc(-c2nc3ccc(N4CCOC(CO)C4)cn3n2)c2cc(NC(=O)C3CC3)ncc12` (stereo not shown) [Example 1029], in experiment [1], the IC50 is no more than 500 nM. Further, the Kd on TYK2 JH2 is no more than 100 nM.
In the case of `CNc1ncc(-c2nc3ccc(N4CCO[C@@H](CO)C4)cn3n2)c2cc(NC(=O)C3CC3)ncc12` [Example 1030], in experiment [1], the IC50 is no more than 500 nM. In addition, the Kd at TYK2 JH2 is no more than 100 nM.
For the molecule `CNc1ncc(-c2nc3ccc(N4CCO[C@H](CO)C4)cn3n2)c2cc(NC(=O)C3CC3)ncc12` [Example 1031], the IC50 in experiment [1] was no more than 500 nM. Further, the Kd on TYK2 JH2 was no more than 100 nM.
In the same order, the values of `CNc1ncc(-c2nc3ccc(N4CCO[C@@H](C(C)(C)OC)C4)cn3n2)c2cc(NC(=O)C3CC3)ncc12` [Example 1032] are no more than 500 nM and no more than 100 nM.
Turning to `CNc1ncc(-c2nc3ccc(N4CCO[C@H](C(C)(C)OC)C4)cn3n2)c2cc(NC(=O)C3CC3)ncc12` [Example 1033], the IC50 in experiment [1] is no more than 500 nM. The Kd at TYK2 JH2 was no more than 100 nM.
In the same order, the values of `CNc1ncc(-c2nc3ccc(C4=CCOCC4)cn3n2)c2cc(NC(=O)C3CC3)ncc12` [Example 1034] are no more than 500 nM and no more than 100 nM.
In the same order, the values of `CNc1ncc(-c2nc3ccc(C4CCOCC4)cn3n2)c2cc(NC(=O)C3CC3)ncc12` [Example 1035] are no more than 500 nM and no more than 100 nM.
For `CNc1ncc(-c2nc3c(F)cc(N4CCOCC4)cn3n2)c2cc(NC(=O)C3CC3)ncc12` [Example 1036] the same measures were no more than 500 nM and no more than 100 nM.
Turning to `CNc1ncc(-c2nc3ccc(N4CC(C)(O)C4)cn3n2)c2cc(NC(=O)C3CC3)ncc12` [Example 1037], in experiment [1], the IC50 was no more than 500 nM. For the same molecule, the Kd on TYK2 JH2 is no more than 100 nM.
Take `CNc1ncc(-c2nc3ccc(-n4cccn4)cn3n2)c2cc(NC(=O)C3CC3)ncc12` [Example 1038]: the IC50 in experiment [1] is no more than 500 nM. Moreover, the Kd at TYK2 JH2 is no more than 100 nM.
Turning to `CNc1ncc(-c2nc3cccc(OC)n3n2)c2cc(NC(=O)C3CC3)ncc12` [Example 1039], the IC50 in experiment [1] is no more than 500 nM. The Kd on TYK2 JH2 is no more than 100 nM.
In the same order, the values of `CNc1ncc(-c2nc3ccc(C(F)F)cn3n2)c2cc(NC(=O)C3CC3)ncc12` [Example 1040] are no more than 500 nM and no more than 100 nM.
With `CNc1ncc(-c2nc3ccc(C(C)(C)O)cn3n2)c2cc(NC(=O)C3CC3)ncc12` [Example 1041], the IC50 in experiment [1] is no more than 500 nM. Also, the Kd on TYK2 JH2 is no more than 100 nM.
For `CNc1ncc(-c2nc3ccc(-c4ccn(C)n4)cn3n2)c2cc(NC(=O)C3CC3)ncc12` [Example 1042] the same measures were no more than 500 nM and no more than 100 nM.
Consider `CNc1ncc(-c2nc3ccc(N4CCOC(C(C)O)C4)cn3n2)c2cc(NC(=O)C3CC3)ncc12` (stereo not shown) [Example 1043], for which, in experiment [1], the IC50 is no more than 500 nM. The Kd at TYK2 JH2 is no more than 100 nM.
For `CNc1ncc(-c2nc3ccc(N4CCOC(C(C)(C)F)C4)cn3n2)c2cc(NC(=O)C3CC3)ncc12` (stereo not shown) [Example 1048] the same measures were no more than 500 nM and no more than 100 nM.
Turning to `CNc1ncc(-c2cn3cc(N4CCO[C@H](C)C4)ccc3n2)c2cc(NC(=O)C3CC3)ncc12` [Example 1051], the IC50 in experiment [1] is no more than 500 nM. Also, at TYK2 JH2, the Kd was no more than 100 nM.
For `CNc1ncc(-c2cn3cc(N4CCO[C@@H](C)C4)ccc3n2)c2cc(NC(=O)C3CC3)ncc12` [Example 1052] the same measures were no more than 500 nM and no more than 100 nM.
For `CNc1ncc(-c2nc3ccc(N4CCOC(CCCO)C4)cn3n2)c2cc(NC(=O)C3CC3)ncc12` (stereo not shown) [Example 1053], the IC50 in experiment [1] was no more than 500 nM. Besides, the Kd on TYK2 JH2 was no more than 100 nM.
In the same order, the values of `CNc1ncc(-c2cc3cc(OC)ccc3o2)c2cc(NC(=O)C3CC3)ncc12` [Example 1054] are no more than 500 nM and no more than 100 nM.
With `CNc1ncc(-c2cn3cc(C)cc(F)c3n2)c2cc(NC(=O)C3CC3)ncc12` [Example 1055], the IC50 in experiment [1] was no more than 500 nM. Further, the Kd on TYK2 JH2 was no more than 100 nM.
In the same order, the values of `CNc1ncc(-c2cn3cc(C)ccc3n2)c2cc(NC(=O)C3CC3)ncc12` [Example 1056] are no more than 500 nM and no more than 100 nM.
In the same order, the values of `CNc1ncc(-c2nc3cc(N4CCOC(C(F)F)C4)ccc3o2)c2cc(NC(=O)[C@H]3C[C@H]3C)ncc12` (stereo partly drawn) [Example 1057, (1S,2R)—N-(5-(5-(2-(difluoromethyl)morpholino)benzo[d]oxazol-2-yl)-8-(methylamino)-2,7-naphthyridin-3-yl)-2-methylcyclopropane-1-carboxamide] are no more than 500 nM and no more than 100 nM.
`CNc1ncc(-c2nc3cc(N4CCO[C@H](C(F)F)C4)ccc3o2)c2cc(NC(=O)[C@H]3C[C@H]3C)ncc12` [Example 1058]: the IC50 in experiment [1] was no more than 500 nM. The Kd at TYK2 JH2 was no more than 100 nM.
For `CNc1ncc(-c2nc3cc(N4CCO[C@@H](C(F)F)C4)ccc3o2)c2cc(NC(=O)[C@H]3C[C@H]3C)ncc12` [Example 1059] the same measures were no more than 500 nM and no more than 100 nM.
Consider `CNc1ncc(-c2nc3cc(OC)ccc3o2)c2cc(NC(=O)[C@H]3C[C@@H]3C)ncc12` [Example 1060, (1S,2S)-N-(5-(5-methoxybenzo[d]oxazol-2-yl)-8-(methylamino)-2,7-naphthyridin-3-yl)-2-methylcyclopropane-1-carboxamide], for which the IC50 in experiment [1] is no more than 500 nM. Also, the Kd on TYK2 JH2 was no more than 100 nM.
Take `CNc1ncc(-c2nc3cc(OC)ccc3o2)c2cc(NC(=O)[C@@H]3C[C@H]3C)ncc12` [Example 1061, (1R,2R)-N-(5-(5-methoxybenzo[d]oxazol-2-yl)-8-(methylamino)-2,7-naphthyridin-3-yl)-2-methylcyclopropane-1-carboxamide]: in experiment [1], the IC50 is no more than 500 nM. The Kd on TYK2 JH2 is no more than 100 nM.
For `CNc1ncc(-c2nc3cc(N4C[C@@H](C)O[C@@H](C)C4)ccc3o2)c2cc(NC(=O)[C@@H]3C[C@@H]3F)ncc12` [Example 1062, (1S,2S)-N-[5-[5-[(2R,6S)-2,6-dimethylmorpholin-4-yl]-1,3-benzoxazol-2-yl]-8-(methylamino)-2,7-naphthyridin-3-yl]-2-fluoro-cyclopropanecarboxamide] the same measures were no more than 500 nM and no more than 100 nM.
Turning to `CNc1ncc(-c2nc3cc(N4C[C@@H](C)O[C@@H](C)C4)ccc3o2)c2cc(NC(=O)[C@H]3C[C@H]3C)ncc12` [Example 1063, (1S,2R)-N-[5-[5-[(2R,6S)-2,6-dimethylmorpholin-4-yl]-1,3-benzoxazol-2-yl]-8-(methylamino)-2,7-naphthyridin-3-yl]-2-methyl-cyclopropanecarboxamide], the IC50 in experiment [1] is no more than 500 nM. Also, the Kd on TYK2 JH2 is no more than 100 nM.
For the molecule `CNc1ncc(-c2nc3cc(N4CCOCC4)ccc3o2)c2cc(NC(=O)C3C[C@@H]3C(F)(F)F)ncc12` (stereo partly shown) [Example 1065, N-(8-(methylamino)-5-(5-morpholinobenzo[d]oxazol-2-yl)-2,7-naphthyridin-3-yl)-2-(trifluoromethyl)cyclopropane-1-carboxamide], the IC50 in experiment [1] is no more than 500 nM. In addition, the Kd on TYK2 JH2 is no more than 100 nM.
For `CNc1ncc(-c2nc3cc(N4C[C@H](C)O[C@@H](C)C4)ccc3o2)c2cc(NC(=O)[C@H]3C[C@H]3C)ncc12` [Example 1068, (1S,2R)-N-[5-[5-[(2S,6S)-2,6-dimethylmorpholin-4-yl]-1,3-benzoxazol-2-yl]-8-(methylamino)-2,7-naphthyridin-3-yl]-2-methyl-cyclopropanecarboxamide] the same measures were no more than 500 nM and no more than 100 nM.
`CNc1ncc(-c2nc3cc(N4C[C@@H](C)O[C@H](C)C4)ccc3o2)c2cc(NC(=O)[C@H]3C[C@H]3C)ncc12` [Example 1070, (1S,2R)-N-(5-(5-((2R,6R)-2,6-dimethylmorpholino)benzo[d]oxazol-2-yl)-8-(methylamino)-2,7-naphthyridin-3-yl)-2-methylcyclopropane-1-carboxamide]: the IC50 in experiment [1] was no more than 500 nM. Further, the Kd on TYK2 JH2 is no more than 100 nM.
Consider `CNc1ncc(-c2nc3ccc(N4CCOCC4)cn3n2)c2cc(NC(=O)C3CC3(F)F)ncc12` (stereo not shown) [Example 1071, 2,2-difluoro-N-(8-(methylamino)-5-(6-morpholino-[1,2,4]triazolo[1,5-a]pyridin-2-yl)-2,7-naphthyridin-3-yl)cyclopropane-1-carboxamide], for which the IC50 in experiment [1] is no more than 500 nM. Besides, on TYK2 JH2, the Kd is no more than 100 nM.
For `CNc1ncc(-c2nc3ccc(N4CCOCC4)cn3n2)c2cc(NC(=O)C3(C(F)F)CC3)ncc12` [Example 1072, 1-(difluoromethyl)-N-[8-(methylamino)-5-(6-morpholino-[1,2,4]triazolo[1,5-a]pyridin-2-yl)-2,7-naphthyridin-3-yl]cyclopropanecarboxamide] the same measures were no more than 500 nM and no more than 100 nM.
